Assay results published in patent publication US4159328A, “Tetrahydro-1,3,5-thiadiazin-4-one derivative” (Nihon Nohyaku Co., Ltd., priority 1977, dated 1979).

Key:
Format in all cases: in vivo
[1] = tested on: larvae of brown planthopper (Nilaparvata lugens Stahl); assay: Test Example 1: insecticidal activity against larvae of brown planthopper; conditions: 120 h, third-instar larvae, 25° C., 5 days after treatment
Method: Insecticidal activity against larvae of brown planthopper (Nilaparvata lugens Stahl).
(§1) Testing method: Five rice seedlings of the 1.5 leaf age were dipped in a test composition of 400 ppm concentration for 30 seconds. After air-drying, the seedlings were placed in a glass tube containing 1 ml of water and infested with five third-instar larvae of brown planthopper. The glass tube was left standing in a constant temperature cabinet at 25° C. and 5 or 7 days after the treatment, dead-and-survival was observed. Mortality was calculated from the results of 3-replication test.

[2] = tested on: two-spotted spider mite (Tetranychus urticae Koch); assay: Test Example 3: activity to two-spotted spider mite; conditions: 120 h, 1,000 ppm, 5 days after treatment
Description: Activity to two-spotted spider mite (Tetranychus urticae Koch).
Testing method: Two-spotted spider mites were set free on the pot-planted soybean in a greenhouse. On the next day, a test composition of 1,000 ppm concentration was sprayed over the soybean by means of a spray gun. Two days or five days after the treatment, dead-and-survival was inspected to calculate the mortality.

[3] = tested on: larvae of house mosquito (Culex pipiens pallens Coquillett); assay: Test Example 6: insecticidal activity to larvae of house mosquito; conditions: 120 h
Method: Insecticidal activity to larvae of house mosquito (Culex pipiens pallens Coquillett).
Test method: In a 200-ml beaker, was placed together with a feed 100 ml of a test composition diluted with deionized water to 10 ppm concentration. The test composition was infested with 20 first-instar larvae of house mosquito and the beaker was covered with a sheet of Japanese paper. The beaker was kept in a constant temperature cabinet at 25° C. Five days after the treatment, the dead-and-survival was inspected to calculate the mortality.

[4] = tested on: larvae of white-backed planthopper (Sogatella furcifera Horvath); assay: Test Example 2: insecticidal activity against larvae of white-backed planthopper; conditions: 168 h, 400 ppm, first-instar larvae, 25° C., seven days after treatment, read-out: Mortality
Method: Insecticidal activity against larvae of white-backed planthopper (Sogatella furcifera Horvath).
as §1, with “first-instar” for “third-instar”, “white-backed” for “brown”, “seven” for “5 or 7”

Row | SMILES | mortality at 400 ppm [1] | mortality at 1000 ppm [2] | mortality at 10 ppm [3] | mortality at 400 ppm [4]
1 | CCN=C1SCN(c2cccc(C(F)(F)F)c2)C(=O)N1CC [Compound 260] | 60% | 100% |  | 
2 | C=CCN1C(=O)N(c2ccccc2Cl)CSC1=NC(C)C [Compound 242] | 100% | 70% |  | 
3 | CC(C)N=C1SCN(c2ccccc2Cl)C(=O)N1Cc1ccco1 [Compound 255] | 100% | 100% |  | 
4 | CCC(C)N1C(=O)N(c2cccc(C)c2C)CSC1=NC(C)(C)C (centres unmarked) [Compound 385] | 100% | 100% |  | 
5 | CCCN1C(=O)N(c2ccc(C)cc2)CSC1=NC(C)(C)C [Compound 317] | 100% | 100% | 100% | 
6 | CC(C)N1C(=O)N(c2ccc(Br)cc2)CSC1=NC(C)(C)C [Compound 294] | 100% | 100% |  | 
7 | Cc1ccccc1N1CSC(=NC2CCCCC2)N(C2CCCCC2)C1=O [Compound 307, 2-cyclohexylimino-3-cyclohexyl-5-(o-tolyl)-tetrahydro-1,3,5-thiadiazin-4-one] | 70% | 70% | 100% | 
8 | Cc1ccc(N2CSC(=NCc3ccccc3)N(Cc3ccccc3)C2=O)cc1 [Compound 321, 2-Benzylimino-3-benzyl-5-(p-tolyl)-tetrahydro-1,3,5-thiadiazin-4-one] | 85% | 70% | 70% | 
9 | CCC(C)N=C1SCN(c2ccc(Cl)cc2)C(=O)N1C(C)CC (centres unmarked) [Compound 197] | 100% | 80% | 100% | 90%
10 | CCC(C)N1C(=O)N(c2cccc(C(F)(F)F)c2)CSC1=NC(C)(C)C (centres unmarked) [Compound 274] | 100% | 100% | 100% | 
11 | Cc1ccc(N2CSC(=NC(C)C)N(Cc3ccccc3)C2=O)cc1 [Compound 320] | 100% | 70% | 70% | 
12 | C=CCN1C(=O)N(c2ccccc2C)CSC1=NC(C)(C)C [Compound 300] | 100% | 90% |  | 
13 | C=CCN1C(=O)N(c2ccc(Cl)c(Cl)c2)CSC1=NC(C)C [Compound 421] | 60% | 70% |  | 
14 | CCC(C)N1C(=O)N(c2ccc(Br)cc2)CSC1=NC(C)(C)C (centres unmarked) [Compound 295] | 100% | 100% |  | 
15 | CC(C)N1C(=O)N(c2cc(Cl)cc(Cl)c2)CSC1=NC(C)(C)CC(C)(C)C [Compound 409] | 60% | 100% |  | 
16 | CN=C1SCN(c2cccc(C)c2C)C(=O)N1C [Compound 381] | 60% | 70% |  | 
17 | CN=C1SCN(c2ccc(C)cc2C)C(=O)N1C [Compound 376] | 60% | 100% |  | 
18 | CCN1C(=O)N(c2ccc(C)cc2)CSC1=NC(C)(C)C [Compound 312] | 100% | 100% | 100% | 
19 | CCN1C(=O)N(c2ccccc2Cl)CSC1=NC(C)(C)C [Compound 241] | 100% | 70% |  | 
20 | CC(C)Oc1ccc(N2CSC(=NC(C)(C)C)N(C(C)C)C2=O)cc1 [Compound 373] | 80% | 100% |  | 
21 | CC(C)N=C1SCN(c2ccc(Cl)c(Cl)c2)C(=O)N1C(C)C [Compound 415] | 100% | 100% |  | 
